Measured values as given in US7399475B1, “Inactivated microorganisms comprising substances having pharmacological activity” (Toner Enterprise Inc., priority 1999, dated 2008).

What was measured:
[1] = Incorporated vitamins determined by HPLC after 5N HCl or NaOH 0.05N extraction of dried yeast; format: physicochemical, Saccharomyces cerevisiae; conditions: Example 10, content in dried loaded yeast; for Incorporated vitamins (HCl extraction), Content: 5N HCl extraction; for Incorporated vitamins (NaOH extraction), Content: NaOH 0.05N extraction
Experimental: In this treatment yeast cells have been partially emptied by the hypertonic solution, comprising NaCl and Trisodium citrate bihydrate, as already described. Vitamins were then incorporated by incubation in a vitamins hypotonic solution (hypotonic=80% isotonicity). The quantity of vitamins loaded into the cells, was measured by HPLC. The suspension was then centrifuged and the centrifugates was washed twice with 560 g NaCl isotonic solution (0.9%). Step IV)-The centrifugate was air-dried at 45° C. for 36 hours. After mincing the dried pellets were sifted on a 400μ net. Step V)-The incorporated vitamins quantities were determined by HPLC af[…] HCl extraction for one hours at 25° C. under gentle stirring and after NaOH 0.05N extraction (one hours at 25° C. under gentle stirring). In this treatment yeast cells have been partially emptied by the hypertonic solution, comprising NaCl and Trisodium citrate bihydrate, as already described. α-tocopherol (vitamin E) was then incorporated by incubation in a vitamin hypotonic solution (hypotonic=80% isotonicity). The quantity of vitamin loaded into the cells, was measured HPLC. […] An aliquot of the solution (B), was then washed one more time with a NaCl isotonic solution Step IV)-The centrifugate was air-dried at 40° C. for 36 hours. The dried mass of cells was minced and then sifted on a 400μ net. Step V)-The incorporated vitamin quantities were determined by HPLC af[…] HCl extraction for one hour at 25° C. under gentle stirring.

[2] = Quantity of active agent incorporated in the yeast cells, released by hypertonic (osmotic) treatment and determined by HPLC; format: physicochemical, Saccharomyces cerevisiae; conditions: batch not stated, column unlabelled
Experimental: The suspensions obtained as described above were tested in order to check the quantity of ascorbic acid that had accumulated in the cells.
Step IV)—The suspension obtained in Step III) was centrifuged at 4000 r.p.m. (1252 R.C.F.). The precipitated was washed twice (sample A) or thrice (sample B) with an isotonic solution of sodium chloride (0.9%) keeping it in suspension during each washing.
Step V)—The centrifugate was brought up to 80 g with the hypertonic solution (NaCl 2.0M) used for Step I). In order to complete the osmotic treatment, the suspension was kept under gentle stirring for 6 hours at 25° C.
Step VI)—The ascorbic acid present in each solution (mg/ml) and in the microorganism (mg/g) was determined by HPLC, by the use of the following formula: mg/g=Ac×Ps×fs×Ds×1000/As×Pc×Dc,
The suspension obtained as described above was tested in order to check the quantity of oxytetracycline that had accumulated in the cells.
Step IV)—The suspension obtained in Step II) was centrifuged at 4000 r.p.m. (1252 R.C.F.). The centrifugate was washed twice (A) or thrice (B) with an isotonic solution of sodium chloride (0.9%) keeping it in suspension for 10 minutes before centrifugation.
Step VI)—The oxytetracycline HCl present in each solution (mg/ml) and in the microorganism (mg/g) was determined by HPLC, by the use of the following formula: mg/g=Ac×Ps×fs×Ds×1000/As×Pc×Dc,
The suspension obtained as described above was tested in order to check the quantity of sodium sulphadimethoxine that had accumulated in the cells.
Step VI)—The sodium sulphadimethoxine present in each (mg/ml) and in the microorganism (mg/g) was determined by HPLC, by the use of the following formula: mg/g=Ac×Ps×fs×Ds×1000/As×Pc×Dc,
The suspension as previously obtained was tested to ascertain the quantity of sodium sulphadimethoxin that had accumulated in the cells.
Step IV)—For analytical reasons, the suspension obtained in Step III) was diluted with an isotonic solution of sodium sulphadimethoxin (5.17%) to 200 g. An aliquot of 80 g of suspension was taken. The suspension was centrifuged at 10 000 r.p.m., and the centrifugate was washed twice (A) or thrice (B) with an isotonic solution of sodium chloride (0.9%). The suspension was stirred for 10 minutes before each washing.
Step VI)—The sodium sulphadimethoxin present in solution (mg/ml) and in the microorganism (mg/g) was determined by HPLC, by the use of the following formula: mg/g=Ac×Ps×fs×Ds×1000/As×Pc×Dc,
The suspension obtained as described above was tested in order to check the quantity of ascorbic acid that had been loaded in the cells. […]
Step VI)—The ascorbic acid present in the washing solution (mg/ml) and in the microorganism (mg/g) was determined by HPLC, by the use of the following formula: mg/g=Ac×Ps×fs×Ds×1000/As×Pc×Dc, […]

[3] = known from the literature; cited from earlier work

## Nc1nc2ncc(CNc3ccc(C(=O)N[C@@H](CCC(=O)O)C(=O)O)cc3)nc2c(=O)[nH]1 [Folic Acid, folic acid]
[1]
  Incorporated vitamins (HCl extraction), Content: 0.203 0/00 (mg/g)
  Incorporated vitamins (NaOH extraction), Content: 2.663 0/00 (mg/g)

## COc1cc([N-]S(=O)(=O)c2ccc(N)cc2)nc(OC)n1.[Na+] [sulphadimetoxin, sodium sulphadimethoxine]
[2]; Example 3, Test 4NS1
  Sulphadimetoxin final soln.: 0.075 mg/mL
[2]; Example 4, Test 6NS1
  Sulphadimetoxin final soln.: 0.066 mg/mL

## O=C1O[C@H]([C@@H](O)CO)C(O)=C1O [Ascorbic acid, ascorbic acid]
[2]; Example 5, Test 5NC
  Ascorbic acid final soln.: 0.16 mg/mL
[3]
  thermostability of ascorbic acid as such: easily denatured at much lower temperatures

## CN(C)[C@@H]1C(O)=C(C(N)=O)C(=O)[C@@]2(O)C(O)=C3C(=O)c4c(O)cccc4[C@@](C)(O)[C@H]3[C@H](O)[C@@H]12.Cl [Oxytetracyclin, oxytetracycline HCl]
[2]; Example 2, Test 3NO
  Oxytetracyclin final soln.: 0.249 mg/mL

## cyanocobalamin
[1]
  Incorporated vitamins (HCl extraction), Content: 0.018 0/00 (mg/g)
  Incorporated vitamins (NaOH extraction), Content: 0.014 0/00 (mg/g)

## Cc1ncc(C[n+]2csc(CCO)c2C)c(N)n1 [Tiamine, thiamine]
[1]
  Incorporated vitamins (HCl extraction), Content: 3.787 0/00 (mg/g)
  Incorporated vitamins (NaOH extraction), Content: 3.493 0/00 (mg/g)
